The values below come from PubChem BioAssay (NCI).

Each structure is given as a SMILES string.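 How tested: cells in 96-well plates exposed to compound for 48 hours at five concentrations. TGI is the concentration that stops growth completely.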

What all share (test): NCI tumour cell line growth inhibition, 48 h
For test [1], the system named is SF-268 CNS.
Test [2] concerns HT29 colon.
The test system of test [3] is SF-539 CNS.
Test [4] relates to SK-MEL-2 melanoma.
Test [5] has as its system TK-10 renal.
The test system of test [6] is SF-295 CNS.
Test [7] has as its system EKVX NSCLC.
The subject of test [8] is CCRF-CEM leukemia.
For test [9], the system named is IGROV1 ovarian.
The subject of test [10] is HCC-2998 colon.

For `COc1cc(C2C(Cl)C(=O)N2c2ccc(Br)cc2)cc(I)c1O` (stereo unspecified), the TGI in test [1], in test [2], in [3], in [4], in [5] and in [6] was > 100 µM throughout. The TGI in test [7] is > 100 µM; in [8], > 100 µM; in [9], 24.6 µM.
Turning to `C=C(CCOC)CCC1CCCCC(=C)C1=O` (stereo unspecified), the TGI in [1], in [2], in [4], in [10], in [6] and in [7] was > 100 µM in each case. Further, the TGI in test [8] and in test [9] was > 100 µM in each case.
With `C/C(=N\N=C(N)N)c1c(C(=O)OCCCCCCOC(=O)c2nc3sccn3c2/C(C)=N/N=C(N)N)nc2sccn12`, the TGI in test [1] was > 100 µM; in [2] it was > 100 µM; in test [4], > 100 µM; in test [5], 55.1 µM; in test [10], > 100 µM; in test [7] it was > 100 µM. The TGI was 63.2 µM in test [8] and > 100 µM in [9].
Turning to `CCCCC[C@H](O)[C@H](C)C=C1SCCCS1`, the TGI in [1], in test [2], in [4], in test [5], in [10] and in test [6] was > 100 µM each time. Further, the TGI in test [7], in [8] and in [9] was > 100 µM throughout.
Consider `CCOC(=O)c1c2c(n(C)c1-c1ccccc1)C(=O)C(C)=CC2=O`, for which the TGI was found to be 23.1 µM in [1]; 35.1 µM in [2]; 14.6 µM in test [3]; 31.1 µM in test [4]; 22.1 µM in [5]; 36.8 µM in [6]. In addition, the TGI in test [7] turned out to be 20.5 µM; in test [8] it was 7.98 µM; in test [9] it was 17.6 µM.
Consider `CN(C)CCCn1c2ccccc2c2cnccc21`, for which the TGI in [1] was > 100 µM; in test [2], > 100 µM; in [3], 48.2 µM; in test [4], > 100 µM; in test [5], 84.9 µM; in test [6], > 100 µM. Moreover, the TGI in test [7], in [8] and in test [9] was > 100 µM each time.
For `O=[N+]([O-])c1ccc2nc3ccc([N+](=O)[O-])cn3c2c1`, the TGI in test [1], in test [2], in [3], in test [4], in [5] and in [6] was > 100 µM throughout. Also, the TGI in test [7], in test [8] and in test [9] was > 100 µM in each case.
`CCCCCCCCCCCCCCCCOCC(CC(F)(F)P(=O)(O)O)OC(C)=O` (stereo unspecified): the TGI in [1], in test [2], in test [4], in test [5], in test [10] and in [6] was > 50 µM each time. The TGI in test [7] and in [9] was > 50 µM each time.
Turning to `O=C1CCSSCCC(=O)Nc2ccccc2N1`, the TGI in test [1], in [2], in [3], in test [4], in test [5] and in [6] was > 100 µM throughout. The TGI in test [7], in [8] and in [9] was > 100 µM each time.
`c1ccc(C2=NN3CN(N2)c2ccccc2OCCCOc2ccccc23)cc1`: the TGI in test [1], in test [2], in test [3], in test [4], in test [5] and in test [6] was > 100 µM each time. Moreover, the TGI in [7], in [8] and in test [9] was > 100 µM each time.
Take `Cn1c(N)c(/C=N/NC(=O)CC#N)c(=O)n(C)c1=O`: the TGI in [1], in test [2], in test [4], in test [5], in [10] and in test [6] was > 100 µM throughout. Further, the TGI in [7], in test [8] and in test [9] was > 100 µM each time.
Take `N#Cc1c(N)c(-c2ccc(Cl)cc2)c(F)c2ccccc12`: the TGI in [1], in [2], in test [3], in test [4], in test [5] and in [10] was > 100 µM in each case. Besides, the TGI in test [6], in [7] and in test [9] was > 100 µM in each case.
In the case of `CCOC(=O)C1C/C(C)=C(/C)SCCCS1` (stereo unspecified), the TGI in [1], in test [2], in test [3], in test [4], in test [5] and in test [10] was > 100 µM each time. In addition, the TGI in test [6], in [7] and in test [9] was > 100 µM in each case.
For `O=C1c2cc(Cl)ccc2-n2c(noc2=O)C2CSCN12` (stereo unspecified), the TGI in test [1], in [2], in test [4], in test [5], in [10] and in test [6] was > 100 µM throughout. For the same molecule, the TGI in [7], in test [8] and in test [9] was > 100 µM in each case.
As to `CC1(C)CC(=O)C(/C=N/c2nc(-c3ccc(Br)cc3)cs2)=C(O)C1`, the TGI in [2] is > 100 µM; in test [3], 61 µM; in test [4], 48.4 µM; in [5] it was 40.2 µM; in [10], 80.9 µM; in [6], > 100 µM. In addition, the TGI in [7] and in test [9] was > 100 µM in each case.
